Several values for one entry are separate records, joined by “and”; a condition that tells them apart may be missing. Equal values may be shown once. ± gives the expanded uncertainty stated by the source.
Assays:
[1] = Crystal; for Normal melting temperature: DTA
[2] = Molar enthalpy of transition or fusion; conditions: Crystal; DSC

FC(F)(F)C(F)(F)C(F)(F)C(F)(F)C(F)(F)C(F)(F)C(F)(F)C(F)(F)C(F)(F)C(F)(F)C(F)(F)C(F)(F)C(F)(F)C(F)(F)C(F)(F)C(F)(F)C(F)(F)C(F)(F)C(F)(F)C(F)(F)F [dotetracontafluoroeicosane]
Conditions | Molar enthalpy of transition or fusion [kcal/mol] | Normal melting temperature [°C]
[1] | – | 163.1 ± 0.7
[2] | 12 ± 0.263 | –

FC(F)(F)C(F)(F)C(F)(F)C(F)(F)C(F)(F)C(F)(F)C(F)(F)C(F)(F)C(F)(F)C(F)(F)C(F)(F)C(F)(F)F [hexacosafluorododecane]
[1]
Conditions | vapor or sublimation pressure [kPa]
313.3 K | 0.0672 ± 0.0067
318.2 K | 0.1074 ± 0.011
323.2 K | 0.1781 ± 0.018
328.2 K | 0.2832 ± 0.028
333.2 K | 0.4571 ± 0.046
338.2 K | 0.7269 ± 0.073
343.2 K | 1.039 ± 0.1
348.2 K | 1.63 ± 0.16

Conditions | Molar enthalpy of transition or fusion [kcal/mol] | Normal melting temperature [°C]
[1] | – | 73.5 ± 0.7
[2] | 5.78 ± 0.311 | –

Fc1c(F)c(F)c(-c2c(F)c(F)c(F)c(F)c2F)c(F)c1F [perfluorobiphenyl]
Conditions | Molar enthalpy of transition or fusion [kcal/mol] | Normal melting temperature [°C]
[1] | – | 66.5 ± 0.7
[2] | 4.9 ± 0.311 | –

FC(F)(F)C(F)(F)C(F)(F)C(F)(F)C(F)(F)C(F)(F)C(F)(F)C(F)(F)C(F)(F)C(F)(F)C(F)(F)C(F)(F)C(F)(F)C(F)(F)C(F)(F)F [perfluoropentadecane]
[1]
Conditions | vapor or sublimation pressure [kPa]
312.1 K | 0.0006 ± 6e-05
323.2 K | 0.0025 ± 0.00025
333.2 K | 0.00776 ± 0.00078
338.2 K | 0.0139 ± 0.0014
343.3 K | 0.0238 ± 0.0024
348.2 K | 0.0408 ± 0.0041
353.1 K | 0.0662 ± 0.0066
358.2 K | 0.1119 ± 0.011
363.2 K | 0.1796 ± 0.018
368.2 K | 0.2908 ± 0.029

Conditions | Molar enthalpy of transition or fusion [kcal/mol] | Normal melting temperature [°C]
[1] | – | 115.0 ± 0.7
[2] | 8.39 ± 0.191 | –

FC(F)(F)C(F)(F)C(F)(F)C(F)(F)C(F)(F)C(F)(F)C(F)(F)C(F)(F)C(F)(F)C(F)(F)C(F)(F)C(F)(F)C(F)(F)C(F)(F)C(F)(F)C(F)(F)C(F)(F)C(F)(F)C(F)(F)C(F)(F)C(F)(F)C(F)(F)C(F)(F)C(F)(F)F [perfluorotetracosane]
Conditions | Molar enthalpy of transition or fusion [kcal/mol] | Normal melting temperature [°C]
[1] | – | 188.0 ± 0.7
[2] | 15.1 ± 0.406 | –

FC(F)(F)C(F)(F)C(F)(F)C(F)(F)C(F)(F)C(F)(F)C(F)(F)C(F)(F)C(F)(F)C(F)(F)C(F)(F)C(F)(F)C(F)(F)F [perfluorotridecane]
[1]
Conditions | vapor or sublimation pressure [kPa]
313.2 K | 0.0143 ± 0.0014
318.4 K | 0.0253 ± 0.0025
323.4 K | 0.0443 ± 0.0044
329.3 K | 0.0796 ± 0.008
333.5 K | 0.1199 ± 0.012
339.3 K | 0.2077 ± 0.021
343.3 K | 0.297 ± 0.03
349.2 K | 0.5217 ± 0.052
354.1 K | 0.8357 ± 0.084
358.2 K | 1.147 ± 0.11

Conditions | Molar enthalpy of transition or fusion [kcal/mol] | Normal melting temperature [°C]
[1] | – | 88.6 ± 0.7
[2] | 6.67 ± 0.239 | –

FC(F)(F)C(F)(F)C(F)(F)C(F)(F)C(F)(F)C(F)(F)C(F)(F)C(F)(F)C(F)(F)C(F)(F)C(F)(F)C(F)(F)C(F)(F)C(F)(F)C(F)(F)C(F)(F)F [tetratriacontafluorohexadecane]
Conditions | Molar enthalpy of transition or fusion [kcal/mol] | Normal melting temperature [°C]
[1] | – | 126.6 ± 0.7
[2] | 9.25 ± 0.191 | –

FC(F)(F)C(F)(F)C(F)(F)C(F)(F)C(F)(F)C(F)(F)C(F)(F)C(F)(F)C(F)(F)C(F)(F)C(F)(F)C(F)(F)C(F)(F)C(F)(F)F [triacontafluorotetradecane]
[1]
Conditions | vapor or sublimation pressure
313.2 K | 0.00349 ± 0.00035 kPa
318.2 K | 0.00664 ± 0.00066 kPa
328.2 K | 0.0191 ± 0.0019 kPa
333.2 K | 0.0315 ± 0.0032 kPa
338.2 K | 0.053 ± 0.0053 kPa
343.2 K | 0.0971 ± 0.0097 kPa
348.2 K | 0.161 ± 0.016 kPa
353.1 K | 0.2493 ± 0.025 kPa
358.2 K | 0.4128 ± 0.041 kPa and 0.4025 ± 0.04 kPa

Conditions | Molar enthalpy of transition or fusion [kcal/mol] | Normal melting temperature [°C]
[1] | – | 102.5
[2] | 7.53 ± 0.215 | –

From the NIST ThermoML archive (doi:10.1021/je300504f)
